Source: article PMC6268547, “A New Ursane-Type Nor-Triterpenoid from the Leaves of Eucommia ulmoides Oliv” (Molecules, 2012)

Target: T1, protein tyrosine phosphatase 1B (PTP1B) (Homo sapiens, UniProt P18031)
T1 construct: gene PTPN1; Recombinant human GST-PTP1B
T1 sequence (P18031 1-435): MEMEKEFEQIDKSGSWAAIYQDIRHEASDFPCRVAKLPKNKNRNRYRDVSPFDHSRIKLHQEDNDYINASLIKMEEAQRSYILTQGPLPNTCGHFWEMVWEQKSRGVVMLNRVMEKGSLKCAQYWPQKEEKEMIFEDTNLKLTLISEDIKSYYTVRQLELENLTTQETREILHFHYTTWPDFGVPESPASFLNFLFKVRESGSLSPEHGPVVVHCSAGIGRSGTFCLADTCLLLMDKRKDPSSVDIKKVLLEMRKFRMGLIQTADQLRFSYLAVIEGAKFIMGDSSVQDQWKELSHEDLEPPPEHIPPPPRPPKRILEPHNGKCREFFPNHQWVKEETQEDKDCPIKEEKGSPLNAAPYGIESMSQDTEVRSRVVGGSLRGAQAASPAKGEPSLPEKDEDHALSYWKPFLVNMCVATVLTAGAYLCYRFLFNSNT
Experiment: pNPP hydrolysis assay with purified GST-PTP1B, absorbance at […] nm
Assay type: biochemical

Compound	IC50 [µM]
C[C@H]1[C@H](C)CC[C@]2(C(=O)O)CC[C@]3(C)C(=CC[C@@H]4[C@@]5(C)C[C@@H](O)[C@H](O)C(C)(C)[C@@H]5CC[C@]43C)[C@H]12 [compound 3, corosolic acid]	0.69
C=C1[C@H](O)[C@H](O)C[C@]2(C)[C@H]3CC=C4[C@@H]5CC(C)(C)CC[C@]5(C(=O)O)CC[C@@]4(C)[C@]3(C)CC[C@@H]12 [compound 4, 2α,3α-dihydroxy-24-nor-4(23),12-oleanadien-28-oic acid]	3.98
